From ChEMBL document CHEMBL3774317, “Design and synthesis of novel tamoxifen analogues that avoid CYP2D6 metabolism” (Eur J Med Chem, 2016)

Columns and labels:
Type in all cases: functional
[1] = Cytotoxicity against human Hs 578T cells assessed as cell growth at 10^-7 M after 48 hrs by SRB assay; conditions: read-out: Activity
[2] = Cytotoxicity against human Hs 578T cells assessed as cell growth at 10^-4 M after 48 hrs by SRB assay; conditions: read-out: Activity
[3] = Cytotoxicity against human COLO205 cells assessed as cell growth at 10^-6 M after 48 hrs by SRB assay; conditions: COLO 205, 48 h, read-out: Activity
[4] = tested on: MDA-MB-231; assay: Cytotoxicity against human MDA-MB-231 cells assessed as cell growth at 10^-4 M after 48 hrs by SRB assay; conditions: MDA-MB-231, 48 h, read-out: Activity
[5] = Cytotoxicity against human TK10 cells assessed as cell growth at 10^-5 M after 48 hrs by SRB assay; conditions: TK-10, 48 h, read-out: Activity
[6] = Cytotoxicity against human SF268 cells assessed as cell growth at 10^-6 M after 48 hrs by SRB assay; conditions: SF-268, 48 h, read-out: Activity
[7] = Cytotoxicity against human IGROV1 cells assessed as cell growth at 10^-6 M after 48 hrs by SRB assay; conditions: IGROV-1, 48 h, read-out: Activity
[8] = Cytotoxicity against human UACC62 cells assessed as cell growth at 10^-7 M after 48 hrs by SRB assay; conditions: UACC-62, 48 h, read-out: Activity
[9] = tested on: SR; assay: Cytotoxicity against human SR cells assessed as cell growth at 10^-4 M after 48 hrs by SRB assay; conditions: read-out: Activity
[10] = Cytotoxicity against human OVCAR8 cells assessed as cell growth at 10^-6 M after 48 hrs by SRB assay; conditions: OVCAR-8, 48 h, read-out: Activity
[11] = tested on: MDA-MB-468; assay: Cytotoxicity against human MDA-MB-468 cells assessed as cell growth at 10^-7 M after 48 hrs by SRB assay; conditions: MDA-MB-468, 48 h, read-out: Activity
[12] = tested on: EKVX; assay: Cytotoxicity against human EKVX cells assessed as cell growth at 10^-4 M after 48 hrs by SRB assay; conditions: read-out: Activity
[13] = tested on: MDA-MB-435; assay: Cytotoxicity against human MDA-MB-435 cells assessed as cell growth at 10^-8 M after 48 hrs by SRB assay; conditions: MDA-MB-435, 48 h, read-out: Activity
[14] = Cytotoxicity against human OVCAR5 cells assessed as cell growth at 10^-5 M after 48 hrs by SRB assay; conditions: OVCAR-5, 48 h, read-out: Activity
[15] = Cytotoxicity against human HL-60(TB) cells assessed as cell growth at 10^-7 M after 48 hrs by SRB assay; conditions: HL-60, 48 h, read-out: Activity
[16] = Cytotoxicity against human HL-60(TB) cells assessed as cell growth at 10^-4 M after 48 hrs by SRB assay; conditions: HL-60, 48 h, read-out: Activity
[17] = Cytotoxicity against human UO31 cells assessed as cell growth at 10^-5 M after 48 hrs by SRB assay; conditions: UO-31, 48 h, read-out: Activity
[18] = tested on: U-251; assay: Cytotoxicity against human U251 cells assessed as cell growth at 10^-7 M after 48 hrs by SRB assay; conditions: U-251, 48 h, read-out: Activity
[19] = Cytotoxicity against human UACC257 cells assessed as cell growth at 10^-8 M after 48 hrs by SRB assay; conditions: UACC-257, 48 h, read-out: Activity
[20] = tested on: EKVX; assay: Cytotoxicity against human EKVX cells assessed as cell growth at 10^-8 M after 48 hrs by SRB assay; conditions: read-out: Activity
[21] = Cytotoxicity against human NCI-ADR-RES cells assessed as cell growth at 10^-4 M after 48 hrs by SRB assay; conditions: read-out: Activity
[22] = tested on: T47D; assay: Cytotoxicity against human T47D cells assessed as cell growth at 10^-7 M after 48 hrs by SRB assay; conditions: read-out: Activity
[23] = Cytotoxicity against human LOXIMVI cells assessed as cell growth at 10^-8 M after 48 hrs by SRB assay; conditions: LOX IMVI, read-out: Activity
[24] = tested on: HT-29; assay: Cytotoxicity against human HT-29 cells assessed as cell growth at 10^-6 M after 48 hrs by SRB assay; conditions: HT-29, 48 h, read-out: Activity
[25] = Cytotoxicity against human SW620 cells assessed as cell growth at 5 nM after 48 hrs by SRB assay; conditions: SW-620, 48 h, read-out: Activity
[26] = Cytotoxicity against human Hs 578T cells assessed as cell growth at 0.5 uM after 48 hrs by SRB assay; conditions: read-out: Activity
[27] = Cytotoxicity against human PC3 cells assessed as cell growth at 5 nM after 48 hrs by SRB assay; conditions: PC-3, 48 h, read-out: Activity
[28] = Cytotoxicity against human NCI-ADR-RES cells assessed as cell growth at 5 nM after 48 hrs by SRB assay; conditions: read-out: Activity
[29] = Cytotoxicity against human HOP92 cells assessed as cell growth at 50 nM after 48 hrs by SRB assay; conditions: HOP-92, 48 h, read-out: Activity
[30] = Cytotoxicity against human HOP92 cells assessed as cell growth at 0.5 uM after 48 hrs by SRB assay; conditions: HOP-92, 48 h, read-out: Activity
[31] = tested on: NCI-H23; assay: Cytotoxicity against human NCI-H23 cells assessed as cell growth at 50 nM after 48 hrs by SRB assay; conditions: NCI-H23, 48 h, read-out: Activity
[32] = tested on: EKVX; assay: Cytotoxicity against human EKVX cells assessed as cell growth at 5 nM after 48 hrs by SRB assay; conditions: read-out: Activity
[33] = tested on: MDA-MB-231; assay: Cytotoxicity against human MDA-MB-231 cells assessed as cell growth at 50 nM after 48 hrs by SRB assay; conditions: MDA-MB-231, 48 h, read-out: Activity
[34] = Cytotoxicity against human Caki1 cells assessed as cell growth at 0.5 uM after 48 hrs by SRB assay; conditions: CAKI-1, 48 h, read-out: Activity
[35] = Cytotoxicity against human BT549 cells assessed as cell growth at 5 uM after 48 hrs by SRB assay; conditions: BT-549, 48 h, read-out: Activity
[36] = Cytotoxicity against human HCT116 cells assessed as cell growth at 0.5 uM after 48 hrs by SRB assay; conditions: HCT-116, 48 h, read-out: Activity
[37] = Cytotoxicity against human TK10 cells assessed as cell growth at 50 nM after 48 hrs by SRB assay; conditions: TK-10, 48 h, read-out: Activity
[38] = Cytotoxicity against human SNB75 cells assessed as cell growth at 50 nM after 48 hrs by SRB assay; conditions: SNB-75, 48 h, read-out: Activity
[39] = tested on: SN12C; assay: Cytotoxicity against human SN12C cells assessed as cell growth at 50 uM after 48 hrs by SRB assay; conditions: read-out: Activity
[40] = Cytotoxicity against human UACC257 cells assessed as cell growth at 50 uM after 48 hrs by SRB assay; conditions: UACC-257, 48 h, read-out: Activity
[41] = Cytotoxicity against human OVCAR4 cells assessed as cell growth at 5 nM after 48 hrs by SRB assay; conditions: OVCAR-4, 48 h, read-out: Activity
[42] = Cytotoxicity against human SKOV3 cells assessed as cell growth at 5 nM after 48 hrs by SRB assay; conditions: SK-OV-3, 48 h, read-out: Activity

SMILES: C/C(=C(/c1ccc(O)cc1)c1ccc(OCCN2CCCC2)cc1)c1ccccc1
- growth at 0.1 µM [1]: 101%
- growth at 100 µM [2]: -43%
- growth at 1 µM [3]: 88%
- growth at 100 µM [4]: -71%
- growth at 10 µM [5]: 27%
- growth at 1 µM [6]: 88%
- growth at 1 µM [7]: 95%
- growth at 0.1 µM [8]: 101%
- growth at 100 µM [9]: -66%
- growth at 1 µM [10]: 98%
- growth at 0.1 µM [11]: 97%
- growth at 100 µM [12]: -100%
- growth at 0.01 µM [13]: 93%
- growth at 10 µM [14]: 46%
- growth at 0.1 µM [15]: 99%
- growth at 100 µM [16]: -69%
- growth at 10 µM [17]: -25%
- growth at 0.1 µM [18]: 100%
- growth at 0.01 µM [19]: 96%
- growth at 0.01 µM [20]: 91%
- growth at 100 µM [21]: -70%
- growth at 0.1 µM [22]: 63%
- growth at 0.01 µM [23]: 98%
- growth at 1 µM [24]: 67%

SMILES: CCCCCCCCCC(=O)Oc1ccc(/C(=C(/C)c2ccccc2)c2ccc(OCCN3CCCC3)cc2)cc1
- growth at 0.005 µM [25]: 96%
- growth at 0.5 µM [26]: 75%
- growth at 0.005 µM [27]: 100%
- growth at 0.005 µM [28]: 101%
- growth at 0.05 µM [29]: 83%
- growth at 0.5 µM [30]: 64%
- growth at 0.05 µM [31]: 96%
- growth at 0.005 µM [32]: 102%
- growth at 0.05 µM [33]: 105%
- growth at 0.5 µM [34]: 75%
- growth at 5 µM [35]: 85%
- growth at 0.5 µM [36]: 71%
- growth at 0.05 µM [37]: 97%
- growth at 0.05 µM [38]: 83%
- growth at 50 µM [39]: -76%
- growth at 50 µM [40]: -91%
- growth at 0.005 µM [41]: 100%
- growth at 0.005 µM [42]: 101%
